# Assay results taken from patent US20240287154A1, “MC3R AGONIST PEPTIDES” (The Regents of the University of Michigan, priority 2021, published 2024).
# pEC50: −log10 of the molar value. Non-standard residues stand in square brackets, D forms with d. Residues, ends and D or L forms follow the SMILES beside them. Phe(4-Cl) = N[C@@H](Cc1ccc(Cl)cc1)C(=O)O; Phe(4-I) = N[C@@H](Cc1ccc(I)cc1)C(=O)O; NMeY = CN[C@@H](Cc1ccc(O)cc1)C(=O)O; Nle = CCCC[C@H](N)C(=O)O; dAbu = CC[C@@H](N)C(=O)O; Aib = CC(C)(N)C(=O)O
# Key:
# human MC3R = target: T1, human MC3R (Homo sapiens, UniProt P41968); experiment: Intracellular cAMP levels in live cells, MC3R agonist activity; type: cell-based; conditions: cAMP split-luciferase reporter cell line stably expressing human MC3R; direct agonist effect, measurement window 1
# T1 construct: expressed in transfected cells
# Method: The stable cell lines were grown and maintained in selection media consisting of Dulbecco's modified Eagle media (DMEM) with 4.5 g/l D-glucose, and 4 mM L-glutamine (Thermo Fisher Scientific, Waltham, MA), supplemented with 10% fetal bovine serum, 100 units/ml penicillin, 100 μg/ml streptomycin, 2.5 μg/ml amphotericin B, 200 μg/ml hygromycin B (for positive selection of the GScAMP22f luciferase reporter), and Geneticin™ (G418) 700 μg/ml (for MC3R or MC4R selection). Actual serum concentration during the assay is estimated to be about 1%. Cell line identity is routinely verified by qPCR and MC3R- and MC4R-specific oligonucleotides.
# The assay for the determination of the CAMP response in live cells was described previously. […] Ccells were seeded at a density of 20,000 cells per well using 384-well poly-D lysine-coated, clear bottom, and black-wall assay plates (Corning Inc. Corning, NJ). Cells were allowed to attach to the plates for 18 to 24 h after which growth media was removed and 20 ul of 4% D-luciferin (Promega) in CO2 independent, serum-free medium (Thermo Fisher Scientific) was added to each well. […] Intracellular cAMP levels were measured using an FDSS 7000EX Functional Drug Screening System (Hamamatsu Photonics, Hamamatsu, Japan) in the Center for Chemical Genomics at the Life Sciences Institute. This instrument allowed the in-line addition of test-peptides and receptor agonists while simultaneously acquiring the luminescence signal from live cells. […] A submaximal forskolin (20 μM) concentration was also included to serve as a normalization reference to account for cell number variations and differences in assay transducer efficiency between cell lines.
# With this set up it was possible to evaluate the direct agonist effect of the test-peptides on the MC3R and MC4R cell lines during measurement window 1, while the antagonist profile in the presence of EC90 α-MSH was determined on measurement window 2. […] EC50 or IC50 potency values were determined by non-linear regression by fitting the data to a sigmoid four-parameter variable slope model using the GraphPad Prism version 8.4 software package (San Diego CA).
# human MC4R = human MC4R (Homo sapiens, UniProt P32245); experiment: Intracellular cAMP levels in live cells, MC3R selectivity relative to MC4R; type: cell-based; conditions: cAMP assays in human MC3R and human MC4R stable cell lines
# in vitro = conditions: for half-life at 1 µM / remaining at 5 min, 1 µM / remaining at 0.25 h, 1 µM / remaining at 0.5 h, 1 µM / remaining at 1 h, 1 µM / remaining at 2 h, 1 µM / remaining at 4 h, 1 µM: mouse, plasma
# Method: Pooled mouse plasma was prepared and stored at −80° C. prior to use. 396 μL mouse plasma was incubated at 37° C. for 5 minutes in 1.5 mL microcentrifuge tubes. 4 μL of 100 μM test or control compound/peptide was added to each tube and incubated for 0.5, 15, 30, 60, 120, or 240 minutes. An aliquot of 40 μL of each reaction was stopped by the addition of 4 volume of cold acetonitrile containing 200 ng/mL of Setmelanotide as an internal standard (IS). The incubation solution was centrifuged at 3500 rpm for 10 minutes to precipitate protein. The supernatant was used for LC/MS/MS analysis. The natural log peak area ratio (compound peak […] area/internal standard peak area) was plotted against time and the gradient of the line determined.
# T1 sequence (P41968 whole entry): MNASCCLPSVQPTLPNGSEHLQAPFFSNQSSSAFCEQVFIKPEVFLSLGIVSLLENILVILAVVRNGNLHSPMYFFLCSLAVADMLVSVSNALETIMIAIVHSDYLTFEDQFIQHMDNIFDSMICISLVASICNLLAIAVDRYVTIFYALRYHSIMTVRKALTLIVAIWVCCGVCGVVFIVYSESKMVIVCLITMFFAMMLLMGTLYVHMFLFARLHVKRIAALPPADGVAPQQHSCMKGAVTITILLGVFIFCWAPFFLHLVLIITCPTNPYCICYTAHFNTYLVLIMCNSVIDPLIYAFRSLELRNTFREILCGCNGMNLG
# Chain of human MC4R (P32245 whole entry): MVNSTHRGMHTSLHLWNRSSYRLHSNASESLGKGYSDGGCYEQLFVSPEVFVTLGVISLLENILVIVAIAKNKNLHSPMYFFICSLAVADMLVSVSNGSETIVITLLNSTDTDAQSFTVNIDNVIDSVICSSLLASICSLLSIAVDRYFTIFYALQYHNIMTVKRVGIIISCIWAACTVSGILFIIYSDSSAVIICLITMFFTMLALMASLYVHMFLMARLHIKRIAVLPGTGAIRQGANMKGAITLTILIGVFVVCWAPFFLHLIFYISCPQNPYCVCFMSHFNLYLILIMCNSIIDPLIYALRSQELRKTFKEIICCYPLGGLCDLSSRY
Structure (SMILES),pEC50 (human MC3R),MC3R selectivity (relative to MC4R) (human MC4R),further results
"CCCC[C@H](NC(=O)[C@@H](NC(=O)[C@H](N)Cc1ccc(O)cc1)C(C)C)C(=O)N[C@H](C)C(=O)N[C@@H](Cc1c[nH]cn1)C(=O)N[C@@H](Cc1ccccc1)C(=O)N[C@@H](CCCNC(=N)N)C(=O)N[C@H](Cc1c[nH]c2ccccc12)C(=O)N[C@@H](CC(=O)O)C(=O)N[C@@H](CCCNC(=N)N)C(=O)N[C@@H](Cc1ccccc1)C(=O)NCC(=O)O [CTX-1125, D-Tyr-Val-Nle-D-Ala-His-Phe-Arg-D-Trp-Asp-Arg-Phe-Gly] (H-[dY]V[Nle][dA]HFR[dW]DRFG-OH)",8.77,747,"half-life at 1 µM (in vitro): 2.35 h; remaining at 5 min, 1 µM (in vitro): 93.2%; remaining at 0.25 h, 1 µM (in vitro): 105%; remaining at 0.5 h, 1 µM (in vitro): 105%; remaining at 1 h, 1 µM (in vitro): 103%; remaining at 2 h, 1 µM (in vitro): 79.2%; remaining at 4 h, 1 µM (in vitro): 28.8%; Mouse Plasma Stability, time point 0 min (in vitro; pooled mouse plasma, 37° C.): 100%"
"CSCC[C@H](N)C(=O)NCC(=O)N[C@@H](Cc1c[nH]cn1)C(=O)N[C@@H](Cc1ccccc1)C(=O)N[C@@H](CCCNC(=N)N)C(=O)N[C@H](Cc1c[nH]c2ccccc12)C(=O)N[C@@H](CC(=O)O)C(=O)N[C@@H](CCCNC(=N)N)C(=O)N[C@@H](Cc1ccccc1)C(=O)NCC(=O)O [CTX-1547, Met-Gly-His-Phe-Arg-D-Trp-Asp-Arg-Phe-Gly] (H-MGHFR[dW]DRFG-OH)",8.82,54,–
"CCCC[C@H](NC(C)=O)C(=O)N[C@H](C)C(=O)N[C@@H](Cc1c[nH]cn1)C(=O)N[C@@H](Cc1ccc(I)cc1)C(=O)N[C@@H](CCCNC(=N)N)C(=O)N[C@H](Cc1c[nH]c2ccccc12)C(=O)NCC(N)=O [CTX-1543, Nle-D-Ala-His-Phe(4-I)-Arg-D-Trp-Gly] (Ac-[Nle][dA]H[Phe(4-I)]R[dW]G-NH2)",8.51,202,–
"CCCC[C@H](NC(=O)[C@@H](NC(=O)[C@@H](N)Cc1ccc(O)cc1)C(C)C)C(=O)NC(C)(C)C(=O)N[C@@H](Cc1c[nH]cn1)C(=O)N[C@@H](Cc1ccccc1)C(=O)N[C@@H](CCCNC(=N)N)C(=O)N[C@H](Cc1c[nH]c2ccccc12)C(=O)N[C@@H](CC(=O)O)C(=O)N[C@@H](CCCNC(=N)N)C(=O)N[C@@H](Cc1ccccc1)C(=O)NCC(=O)O [CTX-1134, Tyr-Val-Nle-Aib-His-Phe-Arg-D-Trp-Asp-Arg-Phe-Gly] (H-YV[Nle][Aib]HFR[dW]DRFG-OH)",8.60,566,"half-life at 1 µM (in vitro): 0.0462 h; remaining at 5 min, 1 µM (in vitro): 28.6%; remaining at 0.25 h, 1 µM (in vitro): 2.97%; remaining at 0.5 h, 1 µM (in vitro): 0.14%; remaining at 1 h, 1 µM (in vitro): 0.02%; Mouse Plasma Stability, time point 0 min (in vitro; pooled mouse plasma, 37° C.): 100%"
"CCCC[C@H](NC(C)=O)C(=O)N[C@H](C)C(=O)N[C@@H](Cc1c[nH]cn1)C(=O)N[C@@H](Cc1ccccc1)C(=O)N[C@@H](CCCNC(=N)N)C(=O)N[C@H](Cc1c[nH]c2ccccc12)C(=O)N[C@@H](C)C(=O)N[C@@H](CCCNC(=N)N)C(=O)N[C@@H](Cc1ccccc1)C(=O)NCC(=O)O [CTX-1528, Nle-D-Ala-His-Phe-Arg-D-Trp-Ala-Arg-Phe-Gly] (Ac-[Nle][dA]HFR[dW]ARFG-OH)",8.72,182,–
"CC(C)[C@H](NC(=O)[C@@H](N)Cc1ccc(O)cc1)C(=O)N[C@@H](CCC(=O)O)C(=O)N[C@H](C)C(=O)N[C@@H](Cc1c[nH]cn1)C(=O)N[C@H](Cc1ccccc1)C(=O)N[C@@H](CCCNC(=N)N)C(=O)N[C@H](Cc1c[nH]c2ccccc12)C(=O)N[C@@H](CC(=O)O)C(=O)N[C@@H](CCCNC(=N)N)C(=O)N[C@@H](Cc1ccccc1)C(=O)NCC(=O)O [CTX-1106, Tyr-Val-Glu-D-Ala-His-D-Phe-Arg-D-Trp-Asp-Arg-Phe-Gly] (H-YVE[dA]H[dF]R[dW]DRFG-OH)",8.24,120,–
"CCCC[C@H](NC(C)=O)C(=O)N[C@H](C)C(=O)N[C@@H](Cc1c[nH]cn1)C(=O)N[C@@H](Cc1ccccc1)C(=O)N[C@@H](CCCNC(=N)N)C(=O)N[C@H](Cc1c[nH]c2ccccc12)C(=O)N[C@H](Cc1ccccc1)C(=O)N[C@@H](CCCNC(=N)N)C(=O)N[C@@H](Cc1ccccc1)C(=O)NCC(=O)O [CTX-1531, Nle-D-Ala-His-Phe-Arg-D-Trp-D-Phe-Arg-Phe-Gly] (Ac-[Nle][dA]HFR[dW][dF]RFG-OH)",6.45,8,–
"CCCC[C@H](NC(C)=O)C(=O)N[C@H](CC)C(=O)N[C@@H](Cc1c[nH]cn1)C(=O)N[C@@H](Cc1ccc(I)cc1)C(=O)N[C@@H](CCCNC(=N)N)C(=O)N[C@H](Cc1c[nH]c2ccccc12)C(=O)N[C@@H](CC(=O)O)C(=O)N[C@@H](CCCNC(=N)N)C(=O)N[C@@H](Cc1ccccc1)C(=O)NCC(=O)O [CTX-1191, Nle-D-Abu-His-Phe(4-I)-Arg-D-Trp-Asp-Arg-Phe-Gly] (Ac-[Nle][dAbu]H[Phe(4-I)]R[dW]DRFG-OH)",8.41,470,–
"CCCC[C@H](NC(=O)[C@@H](NC(=O)[C@@H](N)Cc1ccc(O)cc1)C(C)C)C(=O)N[C@H](C)C(=O)N[C@@H](Cc1c[nH]cn1)C(=O)N[C@@H](Cc1ccccc1)C(=O)N[C@@H](CCCNC(=N)N)C(=O)N[C@H](Cc1c[nH]c2ccccc12)C(=O)N[C@@H](CC(=O)O)C(=O)N[C@@H](CCCNC(=N)N)C(=O)N[C@@H](Cc1ccccc1)C(N)=O [CTX-1119, Tyr-Val-Nle-D-Ala-His-Phe-Arg-D-Trp-Asp-Arg-Phe] (H-YV[Nle][dA]HFR[dW]DRF-NH2)",8.72,24,–
"CCCC[C@H](NC(=O)[C@@H](NC(C)=O)C(C)C)C(=O)N[C@H](C)C(=O)N[C@@H](Cc1c[nH]cn1)C(=O)N[C@@H](Cc1ccccc1)C(=O)N[C@@H](CCCNC(=N)N)C(=O)N[C@H](Cc1c[nH]c2ccccc12)C(=O)N[C@@H](CC(=O)O)C(=O)N[C@@H](CCCNC(=N)N)C(=O)N[C@@H](Cc1ccccc1)C(=O)NCC(=O)O [CTX-1121, Val-Nle-D-Ala-His-Phe-Arg-D-Trp-Asp-Arg-Phe-Gly] (Ac-V[Nle][dA]HFR[dW]DRFG-OH)",8.51,"2,123","half-life at 1 µM (in vitro): 2.3 h; remaining at 5 min, 1 µM (in vitro): 118%; remaining at 0.5 h, 1 µM (in vitro): 91.1%; remaining at 1 h, 1 µM (in vitro): 81.7%; remaining at 2 h, 1 µM (in vitro): 68.3%; remaining at 4 h, 1 µM (in vitro): 33.1%; Mouse Plasma Stability, time point 0 min (in vitro; pooled mouse plasma, 37° C.): 100%; Mouse Plasma Stability, time point 15 min (in vitro; pooled mouse plasma, 37° C., 15 min, in % (unit assumed)): 120.25"
"CCCC[C@H](NC(=O)[C@@H](NC(=O)[C@H](Cc1ccc(O)cc1)NC)C(C)C)C(=O)N[C@H](C)C(=O)N[C@@H](Cc1c[nH]cn1)C(=O)N[C@@H](Cc1ccccc1)C(=O)N[C@@H](CCCNC(=N)N)C(=O)N[C@H](Cc1c[nH]c2ccccc12)C(=O)N[C@@H](CC(=O)O)C(=O)N[C@@H](CCCNC(=N)N)C(=O)N[C@@H](Cc1ccccc1)C(=O)NCC(=O)O [CTX-1124, NMe-Tyr-Val-Nle-D-Ala-His-Phe-Arg-D-Trp-Asp-Arg-Phe-Gly] (H-[NMeY]V[Nle][dA]HFR[dW]DRFG-OH)",8.77,69,–
"CCCC[C@H](NC(=O)CNC(=O)COCCOCCNC(=O)CNC(=O)CCc1ccc(I)cc1)C(=O)N[C@H](C)C(=O)N[C@@H](Cc1c[nH]cn1)C(=O)N[C@@H](Cc1ccccc1)C(=O)N[C@@H](CCCNC(=N)N)C(=O)N[C@H](Cc1c[nH]c2ccccc12)C(=O)N[C@@H](CC(=O)O)C(=O)N[C@@H](CCCNC(=N)N)C(=O)N[C@@H](Cc1ccccc1)C(=O)NCC(=O)O [CTX-1148, Gly-Nle-D-Ala-His-Phe-Arg-D-Trp-Asp-Arg-Phe-Gly]",8.82,1197,–
"CCCC[C@H](NC(=O)[C@@H](NC(=O)[C@@H](N)Cc1ccc(O)cc1)C(C)C)C(=O)N[C@H](C)C(=O)N[C@@H](Cc1c[nH]cn1)C(=O)N[C@@H](Cc1ccc(Cl)cc1)C(=O)N[C@@H](CCCNC(=N)N)C(=O)N[C@H](Cc1c[nH]c2ccccc12)C(=O)N[C@@H](CC(=O)O)C(=O)N[C@@H](CCCNC(=N)N)C(=O)N[C@@H](Cc1ccccc1)C(=O)NCC(=O)O [CTX-2121, Tyr-Val-Nle-D-Ala-His-Phe(4-Cl)-Arg-D-Trp-Asp-Arg-Phe-Gly] (H-YV[Nle][dA]H[Phe(4-Cl)]R[dW]DRFG-OH)",8.60,93,–
